Assay results published in publication PMC5760531, “Action Potential Recording and Pro-arrhythmia Risk Analysis in Human Ventricular Trabeculae” (Frontiers in Physiology, 2018).

Test system: human ventricular trabeculae
Assay: Action potential recording and pro-arrhythmic score analysis in human ventricular trabeculae (hVT);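 note: sharp microelectrode action potential recordings at 37°C in Tyrode-perfused trabeculae, 4 cumulative concentrations each applied 31 min, values averaged over last 30 APs, vehicle 0.1% DMSO as control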
Details: 1Hz; for Beat Escape (raw data) / EADs (raw data) / Refractoriness Escape (raw data): n=4 trabeculae
Description: Briefly, the human heart was transferred into a dissection vessel containing a cold (4°C), fresh proprietary dissection solution. The heart was maintained completely submerged in dissection solution. Ventricular trabeculae were dissected and transferred to the recording chamber.
Briefly, a single tissue was mounted into the experimental chamber filled with oxygenated Tyrode's external solution. The temperature of the solution was maintained at 37°C with flow rate at 5 mL per minute. The tissue was allowed to equilibrate for 30–60 min with stimulation (3 V, 3 ms) at a frequency of 1.0 Hz. High impedance borosilicate microelectrodes were prepared with a tip resistance of 10–20 MΩ once filled with 3 M KCl. Upon tissue impalement, the membrane potential was allowed to stabilize (typically, around −85 mV). Tissues with resting membrane potentials more positive than −75 mV were rejected. Bipolar stimulation at 1.5x threshold was applied and recordings were performed in continuous mode with sampling at 20 kHz using ADInstruments and LabChart Software.
Interruption of perfusion/oxygenation; (2). Absence of Aps following stimulation at baseline; (3). Time frame of drug exposure not respected; (4). Unstable response to stimulation at baseline; (5). Resting membrane potential (RMP) > −75 mV; 7). Maximal amplitude of AP (AMAX) <70 mV; 8). AP duration at 90% repolarization (APD90) <200 ms or >450 ms.
Experimental Procedure: Each test article was evaluated at 4 concentrations in 4 ventricular trabeculae derived from a minimum of 2 donor hearts. Testing concentrations were chosen based upon human free ETPC, aiming to cover 1–100-fold of human free ETPC. […] Briefly, following stabilization of each tissue, APs were collected and assessed for 31 min in vehicle control solution (Tyrode with 0.1% DMSO) at stimulation frequencies of 1 Hz for 25 min, 2 Hz for 3 min and then 1 Hz for 3 min. Following this vehicle control period, 4 concentrations of a test compound were applied sequentially and cumulatively. Each concentration was applied for 31 min with the same stimulation sequence as in vehicle controls.
For each frequency tested, the last 30 APs acquired at the end of the period were averaged for vehicle controls and for each test article concentration. Analysis at 1 Hz included only the last 30 APs of the initial 25-min incubation period. The following AP parameters and pro-arrhythmia variables were analyzed offline upon the completion of recordings:
• RMP (mV) • AMAX (mV) • AP duration at percent repolarization (APD20, APD30, APD50, APD60, APD90) (ms) • Short term variability analysis of AP duration (STV): Beat-to-beat variability of repolarization was quantified as STV from APD90 Poincare plots over a period of 30 sec.
Compound effects were quantified relative to the data collected during the vehicle control period (see Figure 1). […] Additionally, based on AnaBios historical data, threshold values for changes over baseline control for AP instability, APD alternans, Maximum APD dispersion and ERP (APD) were based upon an effect level of 10%. When applicable, differences were tested for statistical significance using the unpaired Student's t-test. A value of P < 0.05 was considered significant.
AP parameters and pro-arrhythmia variables were combined into a meaningful, single score to assess the pro-arrhythmic risk of a compound at each concentration tested. The pro-arrhythmic potential of compounds at 1 or 2 Hz was determined by assigning a weighted scale to each variable (Table 1).

## Nc1nnc(-c2cccc(Cl)c2Cl)c(N)n1 [LAMOTRIGINE, Lamotrigine]
0.6-FOLD free ETPC (17µM)
  AMAX (average raw data): 101
  AMAX percentage change compared to vehicle control: -5%
  APD30 (average raw data): 147
  APD30 percentage change compared to vehicle control: -2%
  APD50 (average raw data): 197
  APD50 percentage change compared to vehicle control: 0%
  APD90 (average raw data): 282
  APD90 percentage change compared to vehicle control: 1%
  Alternans (average raw data): 0.88
  Alternans percentage change compared to vehicle control: -35%
  Beat Escape percentage change compared to vehicle control: 0%
  EADs percentage change compared to vehicle control: 0%
  ERP (average raw data): 0.44
  ERP percentage change compared to vehicle control: 4%
  Max Dispersion (average raw data): 4.42
  Max Dispersion percentage change compared to vehicle control: -5%
  RMP (average raw data): -83
  RMP percentage change compared to vehicle control: -3%
  Refractoriness Escape percentage change compared to vehicle control: 0%
  STV (average raw data): 0.60
  STV percentage change compared to vehicle control: -26%
  Triangulation (average raw data): 136
  Triangulation percentage change compared to vehicle control: 3%
  Beat Escape (raw data): 0
  EADs (raw data): 0
  Refractoriness Escape (raw data): 0
6-FOLD free ETPC (17µM)
  AMAX (average raw data): 106
  AMAX percentage change compared to vehicle control: -1%
  APD30 (average raw data): 128
  APD30 percentage change compared to vehicle control: -15%
  APD50 (average raw data): 169
  APD50 percentage change compared to vehicle control: -14%
  APD90 (average raw data): 249
  APD90 percentage change compared to vehicle control: -11%
  Alternans (average raw data): 1.29
  Alternans percentage change compared to vehicle control: -5%
  Beat Escape percentage change compared to vehicle control: 0%
  EADs percentage change compared to vehicle control: 0%
  ERP (average raw data): 0.41
  ERP percentage change compared to vehicle control: -3%
  Max Dispersion (average raw data): 5.13
  Max Dispersion percentage change compared to vehicle control: 10%
  RMP (average raw data): -87
  RMP percentage change compared to vehicle control: 2%
  Refractoriness Escape percentage change compared to vehicle control: 0%
  STV (average raw data): 0.81
  STV percentage change compared to vehicle control: 302%
  Triangulation (average raw data): 121
  Triangulation percentage change compared to vehicle control: -8%
  Beat Escape (raw data): 0
  EADs (raw data): 0
  Refractoriness Escape (raw data): 0
18-FOLD free ETPC (17µM)
  AMAX (average raw data): 97
  AMAX percentage change compared to vehicle control: -9%
  APD30 (average raw data): 115
  APD30 percentage change compared to vehicle control: -23%
  APD50 (average raw data): 152
  APD50 percentage change compared to vehicle control: -23%
  APD90 (average raw data): 244
  APD90 percentage change compared to vehicle control: -13%
  Alternans (average raw data): 7.23
  Alternans percentage change compared to vehicle control: 435%
  Beat Escape percentage change compared to vehicle control: 25%
  EADs percentage change compared to vehicle control: 0%
  ERP (average raw data): 0.39
  ERP percentage change compared to vehicle control: -7%
  Max Dispersion (average raw data): 10.63
  Max Dispersion percentage change compared to vehicle control: 127%
  RMP (average raw data): -90
  RMP percentage change compared to vehicle control: 5%
  Refractoriness Escape percentage change compared to vehicle control: 0%
  STV (average raw data): 5.08
  STV percentage change compared to vehicle control: 477%
  Triangulation (average raw data): 130
  Triangulation percentage change compared to vehicle control: -2%
  Beat Escape (raw data): 1
  EADs (raw data): 0
  Refractoriness Escape (raw data): 0
59-FOLD free ETPC (17µM)
  AMAX (average raw data): 39
  AMAX percentage change compared to vehicle control: -63%
  APD30 (average raw data): 48
  APD30 percentage change compared to vehicle control: -69%
  APD50 (average raw data): 66
  APD50 percentage change compared to vehicle control: -67%
  APD90 (average raw data): 169
  APD90 percentage change compared to vehicle control: -38%
  Alternans (average raw data): 6.14
  Alternans percentage change compared to vehicle control: 354%
  Beat Escape percentage change compared to vehicle control: 100%
  EADs percentage change compared to vehicle control: 0%
  ERP (average raw data): 0.38
  ERP percentage change compared to vehicle control: -10%
  Max Dispersion (average raw data): 28.20
  Max Dispersion percentage change compared to vehicle control: 503%
  RMP (average raw data): -74
  RMP percentage change compared to vehicle control: -9%
  Refractoriness Escape percentage change compared to vehicle control: 0%
  STV (average raw data): 3.94
  STV percentage change compared to vehicle control: 2736%
  Triangulation (average raw data): 121
  Triangulation percentage change compared to vehicle control: 1%
  Beat Escape (raw data): 4
  EADs (raw data): 0
